Residues, ends and D or L forms follow the SMILES beside them. *: point of attachment. Cbz = O=C(OCc1ccccc1)*

The subject of this experiment is SARS-CoV-2. The arrangement: species or system Chlorocebus sabaeus, Vero C1008. To be noted: assay_design cell number determination; assay_format cell based format; assay_stage confirmatory assay; assaysupport stable transfection; bao_tags Fluorescence imaging cell growth inhibition assay; bioassay Fluorescence imaging cell growth inhibition assay; bioassay_setting in vitro; bioassay_type functional; detectioninstrument ArrayScan XTI HCS Reader; detectionmethod fluorescence microscopy.
Turning to `O=C(Nc1ccc(Cl)c(Cl)c1)Nc1ccc(Cl)c(Cl)c1`, the IC50 relative is 5.12 µM.

For `Nc1nc(S)c2ncn(C3OC(CO)C(O)C3O)c2n1` (stereo not drawn), the IC50 relative was 16.2319 µM.

`CS(=O)(=O)O.Cc1c(C(=O)c2cccc3ccccc23)c2cccc3c2n1[C@H](CN1CCOCC1)CO3` gave an IC50 relative of 11.9328 µM.

Turning to `CC(C)(C)C(=O)/C(=C/c1cccc([N+](=O)[O-])c1)n1cncn1`, the IC50 relative amounted to 4.9629 µM.

`COc1cc(/C=C2\SC(=O)NC2=O)ccc1Oc1ccc(C#N)cc1C(F)(F)F` had an IC50 relative of 49.4361 µM.

The compound `COc1cc2c(NC3CCN(C4CCCCC4)CC3)nc(N3CCCN(C(C)C)CC3)nc2cc1OCCCN1CCCCC1` returned an IC50 relative of 17.2224 µM.

Regarding `O=c1cc(N2CCOCC2)oc2c(-c3cccc4c3sc3ccccc34)cccc12`, the IC50 relative was 145.964 µM.

The compound `CC(C)(C)c1cc(C=C(C#N)C#N)cc(Br)c1O` displayed an IC50 relative of 7.2055 µM.

For the compound `CC(C)(C)c1ccccc1Oc1ncccc1NC(=O)Nc1ccc(OC(F)(F)F)cc1`, the IC50 relative was 9.5826 µM.

With `C/C(=C\c1ccc(C(=O)O)cc1)c1ccc2c(c1)C(C)(C)CCC2(C)C`, the IC50 relative turned out to be 54.1303 µM.

`COc1cc2ncnc(Nc3cccc(Br)c3)c2cc1OC` yielded an IC50 relative of 13.3328 µM.

The compound `Nc1ncnc2c1ncn2[C@@H]1CC[C@@H](O)[C@H]1O` gave an IC50 relative of 3.6981 µM.

The compound `C[C@@H]1COCCN1c1cc(=O)n2c(n1)N(Cc1cncc(Cl)c1)[C@H](C(F)(F)F)CC2` displayed an IC50 relative of 19.8832 µM.

Take `O=C(C1CC1)N1CC[C@@H](Cc2n[nH]c(=O)n2-c2ccc(-c3ccc4occc4c3)cc2)C1`: the IC50 relative was found to be 32.5565 µM.

Compound `CCN(CC)c1ccc2cc(-c3nc4ccccc4[nH]3)c(=O)oc2c1` registered an IC50 relative of 0.3531 µM.

In turn, `Nc1ncc(-c2ccnc(Nc3ccncc3)n2)c(CC2CC2)n1` had an IC50 relative of 12.577 µM.

In turn, `CC(C)(O)CNc1ncc(-c2ccnc(Nc3ccnc(Cl)c3)n2)c(CC2CC2)n1` yielded an IC50 relative of 793.9225 µM.

`CCCCn1c(NC(=O)c2cccs2)c(C#N)c2nc3ccccc3nc21` registered an IC50 relative of 13.3332 µM.

With `Cl.O=C(O)Cc1cccc(OCCCN(Cc2cccc(C(F)(F)F)c2Cl)CC(c2ccccc2)c2ccccc2)c1`, the IC50 relative amounted to 16.3401 µM.

`CCc1c(-c2ccc3[nH]ncc3c2)cnc(N)c1-c1ccc(O)cc1` yielded an IC50 relative of 51.0608 µM.

The compound `Cc1ccc(Oc2nc3cc(-c4ccc(-c5ccccc5)cc4)c(Cl)cc3[nH]2)cc1C(=O)O` had an IC50 relative of 351.9839 µM.

In turn, `N#Cc1cccc(C#N)c1-c1nc2c3ccc(Cl)cc3c3ccccc3c2[nH]1` displayed an IC50 relative of 15.4145 µM.

Compound `COc1ccc(-c2c[nH]c3nccc(-c4ccsc4)c23)c(OC)c1` registered an IC50 relative of 28.2582 µM.

`O=C(O)c1ccc(N2C(=O)/C(=C\c3ccc(-c4ccc([N+](=O)[O-])cc4)o3)C=C2c2ccccc2)cc1`: the IC50 relative stood at 651.6971 µM.

Consider `Cl.Cl.N[C@H]1CC[C@H](N[C@@H]2C[C@H]2c2ccccc2)CC1`, for which the IC50 relative is 65.2065 µM.

With `CS(=O)(=O)O.Cc1c(O)cccc1C(=O)NC(CSc1ccccc1)C(O)CN1CC2CCCCC2CC1C(=O)NC(C)(C)C` (stereo not drawn), the IC50 relative was 15.1399 µM.

On to `Cl.O=C(c1c2ccccc2cc2ccccc12)N1CCC(N2CCC[C@@H](C(=O)N3CCOCC3)C2)CC1`, for which the IC50 relative stood at 4.1627 µM.

For the compound `Cc1cnc(Nc2ccc(F)cc2Cl)nc1-c1c[nH]c(C(=O)N[C@H](CO)c2cccc(Cl)c2)c1`, the IC50 relative was 9.1133 µM.

Regarding `Nc1nc(O)c2[nH]nnc2n1` [8-AZAGUANINE], the IC50 relative came to 3.8962 µM.

Take `Nc1nc(N)c2nc(CNc3ccc(C(=O)N[C@@H](CCC(=O)O)C(=O)O)cc3)cnc2n1` [AMINOPTERIN]: the IC50 relative was found to be 0.3554 µM.

As to `CNCc1ccc(-c2cc(-c3nc(-c4ccc(S(=O)(=O)C(C)C)cc4)cnc3N)on2)cc1` [BERZOSERTIB], the IC50 relative was determined as 33.669 µM.

Take `Oc1c(Cl)cc(Cl)cc1Sc1cc(Cl)cc(Cl)c1O` [BITHIONOL]: the IC50 relative amounted to 17.6664 µM.

Compound `CCCCOCCOc1ccc(-c2ccc3c(c2)/C=C(/C(=O)Nc2ccc([S@@+]([O-])Cc4cncn4CCC)cc2)CCCN3CC(C)C)cc1` [CENICRIVIROC] returned an IC50 relative of 52.7809 µM.

On to `C[C@@H]1C[C@@H]([C@H](O)CC2CC(=O)NC(=O)C2)C(=O)[C@@H](C)C1` [CYCLOHEXIMIDE], for which the IC50 relative was determined as 2.4209 µM.

`CC1=NN(c2ccc(C)c(C)c2)C(=O)/C1=N\Nc1cccc(-c2cccc(C(=O)O)c2)c1O` [ELTROMBOPAG] yielded an IC50 relative of 56.9757 µM.

For the compound `COc1ccccc1[C@H](Cn1c(=O)n(C(C)(C)C(=O)O)c(=O)c2c(C)c(-c3ncco3)sc21)OC1CCOCC1` [FIRSOCOSTAT], the IC50 relative was determined as 0.1223 µM.

For the compound `CC[n+]1c(-c2ccccc2)c2cc(N)ccc2c2ccc(N)cc21.[Br-]` [HOMIDIUM BROMIDE], the IC50 relative came out at 96.2744 µM.

Compound `CC(=O)[C@]1(O)Cc2c(O)c3c(c(O)c2[C@@H](O[C@H]2C[C@H](N)[C@H](O)[C@H](C)O2)C1)C(=O)c1ccccc1C3=O.Cl` [IDARUBICIN HYDROCHLORIDE] registered an IC50 relative of 28.5706 µM.

In turn, `CN(Cc1cnc2nc(N)nc(N)c2n1)c1ccc(C(=O)N[C@@H](CCC(=O)O)C(=O)O)cc1` [METHOTREXATE] returned an IC50 relative of 0.0551 µM.

For `CC(C)C[C@@H](C=O)NC(=O)[C@H](CC(C)C)NC(=O)[C@H](CC(C)C)NC(=O)OCc1ccccc1` [MG-132] (Cbz-Leu-Leu-Leu-aldehyde), the IC50 relative worked out at 4.4656 µM.

On to `COc1ccc2c(c1)[C@]1(C[C@H]1c1ccc3c(/C=C/c4ccc(CN5C[C@@H](C)O[C@@H](C)C5)cc4)n[nH]c3c1)C(=O)N2` [OCIFISERTIB], for which the IC50 relative amounted to 14.7188 µM.

`C#CCC(Cc1cnc2nc(N)nc(N)c2n1)c1ccc(C(=O)N[C@@H](CCC(=O)O)C(=O)O)cc1` (stereo partly drawn) [PRALATREXATE] returned an IC50 relative of 0.0052 µM.

`Cn1c(Nc2ccc(C(F)(F)F)cc2)nc2cc(Oc3ccnc(-c4ncc(C(F)(F)F)[nH]4)c3)ccc21` [RAF-265]: the IC50 relative was 10.7684 µM.

`CNC(=O)c1cc(Oc2ccc(NC(=O)Nc3ccc(Cl)c(C(F)(F)F)c3)c(F)c2)ccn1` [REGORAFENIB] showed an IC50 relative of 16.4573 µM.

`CN(C)c1cccc(-c2c3c(=O)n(-c4ccccc4Cl)[nH]c3cc(=O)n2C)c1` [SETANAXIB] yielded an IC50 relative of 73.5962 µM.

In turn, `O=C(Nc1ccc(Cl)cc1)Nc1ccc(Cl)c(Cl)c1` [TRICLOCARBAN] registered an IC50 relative of 8.2868 µM.

Compound `COc1cc(NCc2ccc3nc(N)nc(N)c3c2C)cc(OC)c1OC` [TRIMETREXATE] returned an IC50 relative of 0.3486 µM.

Compound `CC(C)(C)c1cc(C=C(C#N)C#N)cc(C(C)(C)C)c1O` [TYRPHOSTIN A9] showed an IC50 relative of 0.8215 µM.

For the origin of these results see ChEMBL document CHEMBL5303708, “ECBD screening data for assay EOS300033” (2021).
